Test results published in ChEMBL document CHEMBL3877302, “Design and Synthesis of a New Series of 4-Heteroarylamino-1'-azaspiro[oxazole-5,3'-bicyclo[2.2.2]octanes as α7 Nicotinic Receptor Agonists. 1. Development of Pharmacophore and Early Structure-Activity Relationship” (J Med Chem, 2016).
Active and inactive are the calls of the source. The calls are words filed in the database; no cut-off is given here.

Columns and labels:
[1] = Metabolic stability in human microsomes assessed as compound remaining measured after 10 mins; format: ADME, Microsome; details: read-out: Stability
[2] = Metabolic stability in mouse microsomes assessed as compound remaining measured after 10 mins; format: ADME, Microsome; details: read-out: Stability
[3] = Metabolic stability in rat microsomes assessed as compound remaining measured after 10 mins; format: ADME, Microsome; details: read-out: Stability
[4] = target: Nicotinic acetylcholine receptor alpha-1/beta-1/delta/epsilon (Rattus norvegicus, UniProt P09660+P25108+P25109+P25110); assay: Agonist activity at rat alpha1beta1deltaepsilon nAChR expressed in HEK293 cells for 2 mins by FLIPR assay; format: cell-based
[5] = target: Neuronal acetylcholine receptor; alpha3/beta4 (Rattus norvegicus, UniProt P04757+P12392); assay: Agonist activity at rat alpha3beta4 nAChR expressed in HEK293 cells for 2 mins by FLIPR assay; format: cell-based
Chain of Neuronal acetylcholine receptor; alpha3/beta4 (P04757 whole entry): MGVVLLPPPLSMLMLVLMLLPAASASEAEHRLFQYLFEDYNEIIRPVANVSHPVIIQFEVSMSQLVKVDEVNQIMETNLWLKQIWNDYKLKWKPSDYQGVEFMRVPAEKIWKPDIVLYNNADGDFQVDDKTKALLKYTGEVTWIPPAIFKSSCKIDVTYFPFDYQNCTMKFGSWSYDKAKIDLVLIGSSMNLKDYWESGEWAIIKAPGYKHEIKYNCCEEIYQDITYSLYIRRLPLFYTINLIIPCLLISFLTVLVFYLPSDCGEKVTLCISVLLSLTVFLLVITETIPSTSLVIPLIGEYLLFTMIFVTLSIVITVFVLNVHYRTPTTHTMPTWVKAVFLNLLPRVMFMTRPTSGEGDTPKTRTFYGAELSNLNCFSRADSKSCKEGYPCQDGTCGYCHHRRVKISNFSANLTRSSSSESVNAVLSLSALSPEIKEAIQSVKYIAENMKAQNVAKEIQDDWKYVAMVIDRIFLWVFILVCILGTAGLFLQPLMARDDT
Chain of Neuronal acetylcholine receptor; alpha3/beta4 (P12392 whole entry): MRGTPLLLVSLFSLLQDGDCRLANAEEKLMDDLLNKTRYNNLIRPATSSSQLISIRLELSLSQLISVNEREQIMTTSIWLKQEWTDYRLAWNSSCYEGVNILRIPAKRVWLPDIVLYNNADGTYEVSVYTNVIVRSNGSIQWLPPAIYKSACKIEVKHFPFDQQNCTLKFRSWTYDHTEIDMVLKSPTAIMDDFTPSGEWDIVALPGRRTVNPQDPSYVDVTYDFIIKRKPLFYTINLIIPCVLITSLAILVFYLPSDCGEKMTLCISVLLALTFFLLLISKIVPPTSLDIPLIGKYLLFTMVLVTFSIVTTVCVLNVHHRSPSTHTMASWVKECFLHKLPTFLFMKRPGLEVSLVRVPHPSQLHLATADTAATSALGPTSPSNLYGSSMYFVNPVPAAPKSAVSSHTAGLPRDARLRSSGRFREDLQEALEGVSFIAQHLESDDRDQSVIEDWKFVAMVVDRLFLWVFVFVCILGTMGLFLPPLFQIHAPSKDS

[6] = target: Neuronal acetylcholine receptor; alpha4/beta2 (Rattus norvegicus, UniProt P09483+P12390); assay: Agonist activity at rat alpha4beta2 nAChR expressed in HEK293 cells for 2 mins by FLIPR assay; format: cell-based
Chain of Neuronal acetylcholine receptor; alpha4/beta2 (P09483 whole entry): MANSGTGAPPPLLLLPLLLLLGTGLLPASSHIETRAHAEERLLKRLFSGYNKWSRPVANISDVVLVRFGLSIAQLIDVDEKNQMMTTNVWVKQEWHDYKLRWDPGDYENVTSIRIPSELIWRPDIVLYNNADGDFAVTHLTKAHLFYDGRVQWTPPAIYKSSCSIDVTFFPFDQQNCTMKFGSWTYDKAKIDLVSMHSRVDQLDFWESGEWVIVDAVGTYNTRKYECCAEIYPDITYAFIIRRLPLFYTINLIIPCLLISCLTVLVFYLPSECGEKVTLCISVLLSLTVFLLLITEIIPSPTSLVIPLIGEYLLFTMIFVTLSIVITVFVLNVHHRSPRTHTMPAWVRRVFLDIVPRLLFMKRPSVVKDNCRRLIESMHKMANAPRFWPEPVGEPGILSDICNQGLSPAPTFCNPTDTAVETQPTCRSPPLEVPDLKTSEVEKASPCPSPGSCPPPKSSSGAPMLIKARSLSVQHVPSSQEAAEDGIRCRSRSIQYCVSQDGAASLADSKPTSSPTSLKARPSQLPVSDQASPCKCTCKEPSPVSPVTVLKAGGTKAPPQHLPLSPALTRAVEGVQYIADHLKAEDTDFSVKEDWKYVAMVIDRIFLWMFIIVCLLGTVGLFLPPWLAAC
Chain of Neuronal acetylcholine receptor; alpha4/beta2 (P12390 whole entry): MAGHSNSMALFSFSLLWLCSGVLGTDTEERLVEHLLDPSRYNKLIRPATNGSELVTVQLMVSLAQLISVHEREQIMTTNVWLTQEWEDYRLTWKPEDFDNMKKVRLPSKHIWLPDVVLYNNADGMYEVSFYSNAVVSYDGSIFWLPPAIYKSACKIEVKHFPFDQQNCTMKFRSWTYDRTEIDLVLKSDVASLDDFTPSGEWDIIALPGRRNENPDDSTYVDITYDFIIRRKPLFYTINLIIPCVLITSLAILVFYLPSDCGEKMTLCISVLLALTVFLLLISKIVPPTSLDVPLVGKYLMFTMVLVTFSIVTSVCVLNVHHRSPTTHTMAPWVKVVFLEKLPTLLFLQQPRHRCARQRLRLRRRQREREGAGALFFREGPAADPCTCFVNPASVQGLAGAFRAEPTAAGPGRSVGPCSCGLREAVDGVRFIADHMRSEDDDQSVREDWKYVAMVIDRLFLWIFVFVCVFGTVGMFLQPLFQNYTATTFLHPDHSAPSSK

[7] = target: T1, Cytochrome P450 3A4 (Homo sapiens, UniProt P08684); assay: Inhibition of human CYP3A4 using BFC as substrate; format: ADME
T1 sequence (P08684 whole entry): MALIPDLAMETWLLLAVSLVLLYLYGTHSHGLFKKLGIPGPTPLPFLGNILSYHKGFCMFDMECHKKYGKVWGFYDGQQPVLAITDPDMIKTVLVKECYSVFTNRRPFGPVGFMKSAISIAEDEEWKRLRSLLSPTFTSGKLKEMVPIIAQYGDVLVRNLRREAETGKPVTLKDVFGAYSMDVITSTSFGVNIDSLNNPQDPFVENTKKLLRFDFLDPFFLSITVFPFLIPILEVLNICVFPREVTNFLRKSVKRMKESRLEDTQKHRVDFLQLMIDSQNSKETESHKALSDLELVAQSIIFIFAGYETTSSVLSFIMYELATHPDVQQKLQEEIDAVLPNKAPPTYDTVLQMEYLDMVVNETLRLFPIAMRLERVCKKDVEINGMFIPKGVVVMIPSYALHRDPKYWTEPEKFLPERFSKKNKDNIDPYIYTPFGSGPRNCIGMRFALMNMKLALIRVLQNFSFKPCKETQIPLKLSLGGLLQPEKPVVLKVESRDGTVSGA

[8] = target: T1, Cytochrome P450 3A4; assay: Inhibition of human CYP3A4 using BZR as substrate; format: ADME
[9] = target: T2, Cytochrome P450 1A2 (Homo sapiens, UniProt P05177); assay: Inhibition of human CYP1A2; format: ADME
T2 sequence (P05177 whole entry): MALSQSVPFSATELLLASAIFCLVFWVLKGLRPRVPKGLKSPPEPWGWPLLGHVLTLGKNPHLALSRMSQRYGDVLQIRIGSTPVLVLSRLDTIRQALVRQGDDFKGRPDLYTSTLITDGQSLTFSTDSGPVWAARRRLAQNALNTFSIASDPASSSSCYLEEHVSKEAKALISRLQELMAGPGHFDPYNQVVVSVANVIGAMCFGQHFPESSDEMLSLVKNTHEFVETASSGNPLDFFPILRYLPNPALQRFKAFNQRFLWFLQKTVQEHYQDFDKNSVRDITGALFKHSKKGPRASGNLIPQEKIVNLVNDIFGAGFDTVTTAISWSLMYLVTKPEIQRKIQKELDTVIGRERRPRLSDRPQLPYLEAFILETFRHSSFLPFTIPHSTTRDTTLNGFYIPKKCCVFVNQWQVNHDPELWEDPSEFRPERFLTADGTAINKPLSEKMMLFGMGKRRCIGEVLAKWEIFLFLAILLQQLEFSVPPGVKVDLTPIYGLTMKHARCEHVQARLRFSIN

[10] = target: T3, Cytochrome P450 2B6 (Homo sapiens, UniProt P20813); assay: Inhibition of human CYP2B6; format: ADME
T3 sequence (P20813 whole entry): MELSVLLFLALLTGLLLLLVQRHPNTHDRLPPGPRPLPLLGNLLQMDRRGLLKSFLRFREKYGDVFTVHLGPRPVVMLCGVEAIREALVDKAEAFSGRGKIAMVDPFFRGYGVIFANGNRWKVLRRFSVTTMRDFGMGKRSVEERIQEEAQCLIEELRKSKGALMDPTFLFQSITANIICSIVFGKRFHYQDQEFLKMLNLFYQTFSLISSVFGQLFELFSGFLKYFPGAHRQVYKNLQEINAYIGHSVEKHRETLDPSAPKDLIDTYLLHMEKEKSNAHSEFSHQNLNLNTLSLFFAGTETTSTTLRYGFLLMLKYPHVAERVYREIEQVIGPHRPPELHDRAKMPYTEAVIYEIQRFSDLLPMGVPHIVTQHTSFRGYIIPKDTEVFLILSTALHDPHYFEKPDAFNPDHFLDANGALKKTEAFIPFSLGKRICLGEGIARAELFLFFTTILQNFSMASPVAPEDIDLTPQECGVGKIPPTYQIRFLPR

[11] = target: T4, Cytochrome P450 2C8 (Homo sapiens, UniProt P10632); assay: Inhibition of human CYP2C8; format: ADME
T4 sequence (P10632 whole entry): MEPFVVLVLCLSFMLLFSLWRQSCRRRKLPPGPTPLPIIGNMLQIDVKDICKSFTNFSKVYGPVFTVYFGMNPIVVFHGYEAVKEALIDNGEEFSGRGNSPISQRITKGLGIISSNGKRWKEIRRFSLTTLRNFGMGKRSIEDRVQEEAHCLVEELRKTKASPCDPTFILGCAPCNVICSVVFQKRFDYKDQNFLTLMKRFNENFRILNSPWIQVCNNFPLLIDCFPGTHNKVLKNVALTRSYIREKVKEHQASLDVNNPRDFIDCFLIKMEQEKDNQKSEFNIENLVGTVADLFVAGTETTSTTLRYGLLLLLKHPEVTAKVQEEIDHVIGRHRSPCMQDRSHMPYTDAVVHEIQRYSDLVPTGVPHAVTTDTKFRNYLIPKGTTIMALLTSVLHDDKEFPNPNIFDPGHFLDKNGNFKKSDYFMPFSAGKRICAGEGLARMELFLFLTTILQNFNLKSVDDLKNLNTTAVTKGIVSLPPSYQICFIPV

[12] = target: Cytochrome P450 2C9 (Homo sapiens, UniProt P11712); assay: Inhibition of human CYP2C9; format: ADME
Chain of Cytochrome P450 2C9 (P11712 whole entry): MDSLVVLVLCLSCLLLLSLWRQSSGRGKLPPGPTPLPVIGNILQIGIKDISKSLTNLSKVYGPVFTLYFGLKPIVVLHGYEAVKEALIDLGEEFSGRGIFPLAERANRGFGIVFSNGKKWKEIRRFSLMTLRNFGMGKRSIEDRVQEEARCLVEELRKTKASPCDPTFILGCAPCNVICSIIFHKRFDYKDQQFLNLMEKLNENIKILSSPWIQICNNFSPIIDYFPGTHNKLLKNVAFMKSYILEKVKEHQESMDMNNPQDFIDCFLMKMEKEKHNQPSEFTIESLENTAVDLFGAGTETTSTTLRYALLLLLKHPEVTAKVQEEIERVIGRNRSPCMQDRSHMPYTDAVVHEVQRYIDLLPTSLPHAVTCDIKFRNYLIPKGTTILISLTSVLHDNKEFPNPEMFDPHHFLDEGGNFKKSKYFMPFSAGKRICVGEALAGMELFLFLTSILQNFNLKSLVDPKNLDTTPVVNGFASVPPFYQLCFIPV

[13] = target: Cytochrome P450 2C19 (Homo sapiens, UniProt P33261); assay: Inhibition of human CYP2C19; format: ADME
Chain of Cytochrome P450 2C19 (P33261 whole entry): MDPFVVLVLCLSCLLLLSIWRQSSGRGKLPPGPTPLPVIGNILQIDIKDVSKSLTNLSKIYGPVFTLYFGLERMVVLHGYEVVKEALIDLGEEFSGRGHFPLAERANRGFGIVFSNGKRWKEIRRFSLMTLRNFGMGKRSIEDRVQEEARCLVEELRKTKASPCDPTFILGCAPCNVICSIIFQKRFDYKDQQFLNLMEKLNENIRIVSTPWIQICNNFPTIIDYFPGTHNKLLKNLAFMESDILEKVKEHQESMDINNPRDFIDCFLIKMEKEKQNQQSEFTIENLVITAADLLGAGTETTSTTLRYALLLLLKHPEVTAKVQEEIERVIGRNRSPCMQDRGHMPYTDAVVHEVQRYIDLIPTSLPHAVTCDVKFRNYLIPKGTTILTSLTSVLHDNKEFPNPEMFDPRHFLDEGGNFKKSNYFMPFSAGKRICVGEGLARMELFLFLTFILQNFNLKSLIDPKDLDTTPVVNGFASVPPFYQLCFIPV

[14] = target: Cytochrome P450 2D6 (Homo sapiens, UniProt P10635); assay: Inhibition of human CYP2D6; format: ADME
Chain of Cytochrome P450 2D6 (P10635 whole entry): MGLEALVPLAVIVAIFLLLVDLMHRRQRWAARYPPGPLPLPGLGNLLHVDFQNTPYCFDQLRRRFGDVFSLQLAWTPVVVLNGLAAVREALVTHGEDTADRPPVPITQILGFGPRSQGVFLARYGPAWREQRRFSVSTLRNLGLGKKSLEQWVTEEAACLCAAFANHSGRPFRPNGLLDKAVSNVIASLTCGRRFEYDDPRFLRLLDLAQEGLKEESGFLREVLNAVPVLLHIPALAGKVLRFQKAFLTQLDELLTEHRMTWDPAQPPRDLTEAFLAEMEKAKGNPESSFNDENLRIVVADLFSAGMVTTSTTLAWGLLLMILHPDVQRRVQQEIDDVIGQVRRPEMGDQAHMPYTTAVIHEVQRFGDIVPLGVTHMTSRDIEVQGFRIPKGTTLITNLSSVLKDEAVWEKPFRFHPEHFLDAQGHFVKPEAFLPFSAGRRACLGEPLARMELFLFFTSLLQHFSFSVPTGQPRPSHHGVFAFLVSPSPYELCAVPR

[15] = Fraction unbound in human plasma; format: ADME, cell-free
[16] = Fraction unbound in rat plasma; format: ADME, cell-free
[17] = Fraction unbound in mouse plasma; format: ADME, cell-free
[18] = test system: Mus musculus; assay: Cognitive enhancing effect in C57Bl/6 mouse at 0.1 to 1 mg/kg, sc administered 30 mins prior to training measured after 24 hrs by novel recognition assay; format: functional, organism-based
[19] = test system: Mus musculus; assay: Cognitive enhancing effect in C57Bl/6 mouse administered subcutaneously for 30 mins prior to training measured after 24 hrs by novel recognition assay; format: functional; details: C57Bl/6, sc, read-out: MED
[20] = test system: Mus musculus; assay: Cognitive enhancing effect in C57Bl/6 mouse at 0.3 mg/kg, sc administered 30 mins to 6 hrs prior to training measured after 24 hrs by novel recognition assay; format: functional, organism-based
[21] = Drug uptake in C57Bl/6 mouse NOR model brain at 0.03 mg/kg, sc measured after 0.5 hrs; format: ADME, organism-based; details: read-out: Drug uptake
[22] = Drug uptake in C57Bl/6 mouse NOR model brain at 0.1 mg/kg, sc measured after 0.5 hrs; format: ADME, organism-based; details: read-out: Drug uptake
[23] = Drug uptake in C57Bl/6 mouse NOR model brain at 0.3 mg/kg, sc measured after 0.5 hrs; format: ADME, organism-based; details: read-out: Drug uptake
[24] = Drug uptake in C57Bl/6 mouse NOR model brain at 1 mg/kg, sc measured after 0.5 hrs; format: ADME, organism-based; details: read-out: Drug uptake
[25] = Drug uptake in C57Bl/6 mouse NOR model brain at 0.3 mg/kg, sc measured after 2 hrs; format: ADME, organism-based; details: read-out: Drug uptake
[26] = Drug uptake in C57Bl/6 mouse NOR model brain at 0.3 mg/kg, sc measured after 6 hrs; format: ADME, organism-based; details: read-out: Drug uptake
[27] = Plasma concentration in C57Bl/6 mouse NOR model at 0.03 mg/kg, sc measured after 0.5 hrs; format: ADME, organism-based
[28] = Plasma concentration in C57Bl/6 mouse NOR model at 0.1 mg/kg, sc measured after 0.5 hrs; format: ADME, organism-based
[29] = Plasma concentration in C57Bl/6 mouse NOR model at 0.3 mg/kg, sc measured after 0.5 hrs; format: ADME, organism-based
[30] = Plasma concentration in C57Bl/6 mouse NOR model at 1 mg/kg, sc measured after 0.5 hrs; format: ADME, organism-based
[31] = Plasma concentration in C57Bl/6 mouse NOR model at 0.3 mg/kg, sc measured after 2 hrs; format: ADME, organism-based
[32] = Plasma concentration in C57Bl/6 mouse NOR model at 0.3 mg/kg, sc measured after 6 hrs; format: ADME, organism-based
[33] = test system: Mus musculus; assay: Reversal of NMDAR antagonist MK-801-induced memory deficits in C57Bl/6 mouse at 1 and 3 mg/kg, sc administered 30 mins prior to […] challenge measured after 30 mins by Y maze assay; format: functional, organism-based

c1ccc2cc(NC3=NC[C@@]4(CN5CCC4CC5)O3)ncc2c1
remaining at 10 min [1]: 96%
remaining at 10 min [2]: 1%
remaining at 10 min [3]: 89%
EC50 [4]: > 100 µM
EC50 [5]: > 100 µM
EC50 [6]: > 100 µM
IC50 [7]: > 40 µM
IC50 [8]: > 40 µM
IC50 [9]: > 40 µM
IC50 [10]: > 40 µM
IC50 [11]: > 40 µM
IC50 [12]: > 40 µM
IC50 [13]: > 40 µM
IC50 [14]: > 40 µM
fraction unbound [15]: 0.247
fraction unbound [16]: 0.269
fraction unbound [17]: 0.23
Activity [18]: Active
minimal effective dose [19]: 0.1 mg/kg
Activity [20]: Active
concentration at 0.5 h [21]: 19 nM
concentration at 0.5 h [22]: 57 nM
concentration at 0.5 h [23]: 155 to 182 nM
concentration at 0.5 h [24]: 744 nM
concentration at 2 h [25]: 96 nM
concentration at 6 h [26]: 18 nM
concentration at 0.5 h [27]: 4 nM
concentration at 0.5 h [28]: 16 nM
concentration at 0.5 h [29]: 43 to 69 nM
concentration at 0.5 h [30]: 184 nM
concentration at 2 h [31]: 26 nM
concentration at 6 h [32]: 9 nM
Activity [33]: Active
